From ChEMBL document CHEMBL5244222, “A comprehensive review on xanthone derivatives as α-glucosidase inhibitors” (Eur J Med Chem, 2018)
Converted amounts (≈) assume the structure as drawn.

Target: T1, Alpha-glucosidase (Saccharomyces cerevisiae S288c, UniProt P53341+P38158+P07265)
Test: Inhibition of Saccharomyces cerevisiae alpha-glucosidase using PNPG as substrate incubated for 30 mins by spectrophotometric assay
Assay type: protein assay

Row | SMILES | IC50 [µM]
1 | C=C(C)/C=C/c1c(OC)c(O)cc2oc3cc4c(c(O)c3c(=O)c12)C=CC(C)(C)O4 | 34.2
2 | C=C(C)/C=C/c1c(O)cc2oc3cc(O)c(OC)c(CCC(C)(C)O)c3c(=O)c2c1O | 29.9
3 | C=C(C)/C=C/c1ccc2oc3c(O)cc(OC)c(CC=O)c3c(=O)c2c1O | 63.5
4 | C=C(C)C1Cc2c(c(O)cc3oc4cc(O)c(CC=C(C)C)c(O)c4c(=O)c23)O1 (stereo not drawn) [MANGOSTENONE G] | 45
5 | C=C(C)/C=C/c1c(OC)cc2c(c1O)Cc1cccc(O)c1O2 | 58.5
6 | C=C(C)/C=C/c1c(OC)c(O)cc2oc3cc4c(c(O)c3c(=O)c12)C=C(O)C(C)(C)O4 | 31.7
7 | C=C(C)/C=C/c1c(OC)cc2c(c1O)Cc1c(O)ccc(O)c1O2 | 50.5

Target: T1, Alpha-glucosidase
Test: Inhibition of yeast alpha-glucosidase assessed as release of p-nitrophenol using PNPG as substrate preincubated for 10 mins followed by substrate addition and measured after 35 mins by microplate photometer analysis
Assay type: protein assay

Row | SMILES | IC50 [µM]
8 | C=C(C)/C=C/c1c(O)cc(O)c2c(=O)c3c(C/C=C(/C)CC=C(C)C)c(OC)c(O)cc3oc12 | 14.1
9 | COc1cc(O)c2c(=O)c3c(C/C=C(\C)CCC=C(C)C)c(OC)c(O)cc3oc2c1 | 12.4
10 | C=C(C)/C=C/c1c(O)cc2oc3cc(O)c(O)c(C/C=C(\C)CC=C(C)C)c3c(=O)c2c1O | 1.7
11 | COc1c(O)cc2oc3cc(O)c(C/C=C(\C)COC(C)=O)c(O)c3c(=O)c2c1C/C=C(/C)CC=C(C)C | 70.3
12 | COc1c(O)cc2oc3cc(O)c(C/C=C(\C)CO)c(O)c3c(=O)c2c1C/C=C(/C)CC=C(C)C | 28
13 | C=C(C)/C=C/c1cc(O)c(O)c2oc3c(C/C=C(/C)CC=C(C)C)c(OC)cc(O)c3c(=O)c12 | 7.8
14 | C=C(C)/C=C/c1c(O)cc2oc3c(/C=C/C(=C)C)c(O)c(OC)cc3c(=O)c2c1O | 53.5
15 | C=C(C)/C=C/c1c(OC)cc(O)c2c(=O)c3ccc(O)c(O)c3oc12 | 9.4

Target: T1, Alpha-glucosidase
Test: Inhibition of yeast alpha-glucosidase using p-nitrophenyl-alpha-D-glucopyranoside as substrate incubated for 30 mins by spectrophotometric assay
Assay type: protein assay

Row | SMILES | IC50 [µM]
16 | COc1c(O)cc2oc3cc(O)c(C/C=C(\C)COC(C)=O)c(O)c3c(=O)c2c1C/C=C(/C)CC=C(C)C | 18.2
17 | C=C(C)/C=C/c1c(O)c(OC)c(/C=C/C(=C)C)c2c(=O)c3c(O)c(CC(O)C(=C)C)c(O)cc3oc12 (stereo not drawn) | 8.3
18 | COc1c(O)cc2oc3cc(O)c(C/C=C(\C)CO)c(O)c3c(=O)c2c1C/C=C(/C)CC=C(C)C | 168.7
19 | CC1Oc2cc(O)c3c(=O)c4c(O)ccc(O)c4oc3c2C1(C)C (stereo not drawn) | 21.2
20 | COc1cc2c(=O)c3c(O)c(C/C=C(\C)CCC=C(C)C)c(O)cc3oc2cc1O [COWAXANTHONE] | 44
21 | C=C(C)/C=C/c1c(OC)c(OC)cc2oc3cc(O)c(CC=C(C)C)c(O)c3c(=O)c12 | 18.2
22 | COc1c(O)ccc2oc3c4c(c(CC=C(C)C)c(O)c3c(=O)c12)OC(C(C)(O)CCC=C(C)C)C4 (stereo not drawn) | 69
23 | C=C(C)/C=C/c1c(OC)c(OC)cc2oc3cc(O)c(CC(O)C(=C)C)c(O)c3c(=O)c12 (stereo not drawn) | 94.4

Target: T1, Alpha-glucosidase
Test: Inhibition of Saccharomyces cerevisiae alpha-glucosidase assessed as release of p-nitrophenol using pNPG as substrate preincubated for 15 mins followed by substrate addition and measured after 5 mins by spectrophotometric assay
Assay type: protein assay

Row | SMILES | IC50 [µM]
24 | C=C(C)/C=C/[C@]1(C)C=CC2=C(O1)C(CC=C(C)C)=C1O[C@]34C(=C[C@@H]5C[C@H]3C(C)(C)O[C@@]4(CC=C(C)C)C5=O)C(=O)[C@@H]1C2O (stereo partly drawn) | 209.2
25 | C=C(C)C1CCC2(C)CC1c1c(O)c3c(c(CC=C(C)C)c1O2)O[C@]12C(=C[C@@H]4C[C@H]1C(C)(C)O[C@@]2(C/C=C(\C)C(=O)O)C4=O)C3=O (stereo partly drawn) | > 300
26 | CO[C@@H]1C2C(=O)[C@H]3C(=C(CC=C(C)C)C4=C(C=CC(C)O4)C3O)O[C@@]23[C@H]2C[C@@H]1C(=O)[C@]3(C/C=C(\C)C(=O)O)OC2(C)C (stereo partly drawn) | 136.35
27 | C=C(C)/C=C/[C@@]1(C)C=CC2=C(O1)C(CC=C(C)C)=C1O[C@]34C(=C[C@@H]5C[C@H]3C(C)(C)O[C@@]4(CC=C(C)C)C5=O)C(=O)[C@@H]1C2O (stereo partly drawn) | > 300
28 | CC(C)=CCC1=C2O[C@]34C(=C[C@@H]5C[C@H]3C(C)(C)O[C@@]4(CC=C(C)C)C5=O)C(=O)[C@@H]2C(O)C2=C1OC(C)C=C2 (stereo partly drawn) | 140.95
29 | CC(C)=CCC1=C2O[C@]34C(C[C@@H]5C[C@H]3C(C)(C)O[C@@]4(C/C=C(\C)C(=O)O)C5=O)C(=O)[C@@H]2C(O)C2=C1OC(C)C=C2 (stereo partly drawn) | > 300
30 | C=C(C)/C=C/[C@@]1(C)C=CC2=C(O1)C(CC=C(C)C)=C1O[C@]34C(C(=O)[C@@H]1C2O)[C@@H](OCC)[C@@H]1C[C@H]3C(C)(C)O[C@@]4(C/C=C(\C)C(=O)O)C1=O (stereo partly drawn) | > 300
31 | CC(C)=CCC/C(C)=C/Cc1c(C)c(CC=C(C)C)c2c(c1O)C(=O)C1=C[C@@H]3C[C@H]4C(C)(C)O[C@@](CC=C(C)C)(C3=O)[C@@]14O2 | > 300
32 | C=C(C)/C=C/[C@]1(C)C=CC2=C(O1)C(CC=C(C)C)=C1O[C@]34C(C(=O)[C@@H]1C2O)[C@@H](OCC)[C@@H]1C[C@H]3C(C)(C)O[C@@]4(C/C=C(\C)C(=O)O)C1=O (stereo partly drawn) | 111.8
33 | CC(C)=CCC/C(C)=C/Cc1c(C)c(CC=C(C)C)c2c(c1O)C(=O)C1=C[C@@H]3C[C@H]4C(C)(C)O[C@@](C/C=C(\C)C(=O)O)(C3=O)[C@@]14O2 | > 300
34 | C=C(C)/C=C/C1(C)C=CC2=C(O1)C(CC=C(C)C)=C1O[C@]34C(C(=O)[C@@H]1C2O)[C@@H](O)[C@@H]1C[C@H]3C(C)(C)O[C@@]4(C/C=C(\C)C(=O)O)C1=O (stereo partly drawn) | 194.7
35 | C=C(C)/C=C/[C@]1(C)C=CC2=C(O1)C(CC=C(C)C)=C1O[C@]34C(C(=O)[C@@H]1C2O)[C@@H](OC)[C@@H]1C[C@H]3C(C)(C)O[C@@]4(C/C=C(\C)C(=O)O)C1=O (stereo partly drawn) | 108.75
36 | C=C(C)/C=C/[C@@]1(C)C=CC2=C(O1)C(CC=C(C)C)=C1O[C@]34C(C(=O)[C@@H]1C2O)[C@@H](OC)[C@@H]1C[C@H]3C(C)(C)O[C@@]4(C/C=C(\C)C(=O)O)C1=O (stereo partly drawn) | 282.7

Target: T1, Alpha-glucosidase
Test: Inhibition of Saccharomyces cerevisiae alpha-glucosidase using maltose as substrate incubated for 30 mins by spectrophotometric assay
Assay type: protein assay

Row | SMILES | IC50 [µM]
37 | C=C(C)/C=C/c1c(OC)c(O)cc2oc3cc4c(c(O)c3c(=O)c12)C=CC(C)(C)O4 | 92.2
38 | C=C(C)/C=C/c1c(O)cc2oc3cc(O)c(OC)c(CCC(C)(C)O)c3c(=O)c2c1O | 140.2
39 | C=C(C)/C=C/c1ccc2oc3c(O)cc(OC)c(CC=O)c3c(=O)c2c1O | > 200
40 | C=C(C)C1Cc2c(c(O)cc3oc4cc(O)c(CC=C(C)C)c(O)c4c(=O)c23)O1 (stereo not drawn) [MANGOSTENONE G] | > 200
41 | C=C(C)/C=C/c1c(OC)cc2c(c1O)Cc1cccc(O)c1O2 | > 200
42 | C=C(C)/C=C/c1c(OC)c(O)cc2oc3cc4c(c(O)c3c(=O)c12)C=C(O)C(C)(C)O4 | 155.6
43 | C=C(C)/C=C/c1c(OC)cc2c(c1O)Cc1c(O)ccc(O)c1O2 | > 200

Target: T1, Alpha-glucosidase
Test: Inhibition of Saccharomyces cerevisiae alpha-glucosidase assessed as release of p-nitrophenol using pNPG as substrate preincubated for 15 mins followed by substrate addition and measured after 15 mins by plate reader analysis
Assay type: protein assay

Row | SMILES | IC50 [µg/mL]
44 | COc1ccc(O)c2c(=O)c3cc(O)ccc3oc12 | 27.6 (≈ 107 µM)
45 | COc1c(O)cc(O)c2c(=O)c3cc(O)ccc3oc12 | 12.8 (≈ 46.7 µM)
46 | COc1cc(OC)c2c(=O)c3c(O)c(OC)ccc3oc2c1O | 59 (≈ 185 µM)
47 | COc1cc(O)c2c(=O)c3cc(O)ccc3oc2c1OC | 13.2 (≈ 45.8 µM)
48 | COc1ccc2oc3ccc(O)cc3c(=O)c2c1 | 77.3 (≈ 319 µM)
49 | COc1c(O)cc2oc3ccc(O)cc3c(=O)c2c1O | 7.6 (≈ 27.7 µM)
50 | COc1c(O)cc2oc3ccc(O)c(OC)c3c(=O)c2c1O | 63.4 (≈ 208 µM)
51 | COc1ccc2oc3ccc(O)cc3c(=O)c2c1OC | 48.5 (≈ 178 µM)

Target: T1, Alpha-glucosidase
Test: Inhibition of Saccharomyces cerevisiae alpha-glucosidase using pNPG as preincubated for 15 mins followed by substrate addition and measured after 30 mins by spectroscopic analysis

Row | SMILES | IC50 [µM]
52 | COc1ccc(O)c2c(=O)c3c(O[C@H]4O[C@@H](CO)[C@H](O[C@H]5O[C@@H](CO)[C@H](O)[C@H](O)[C@@H]5O)[C@H](O)[C@@H]4O)cc(O)c(OC)c3oc12 | 258
53 | COc1cccc2c(=O)c3c(O)cc(O[C@H]4O[C@@H](CO)[C@H](O)[C@H](O)[C@@H]4O)c(OC)c3oc12 | > 1000
54 | COc1c(OC)c(O[C@H]2O[C@@H](CO[C@H]3OC[C@@H](O)[C@H](O)[C@H]3O)[C@H](O)[C@H](O)[C@@H]2O)c2c(=O)c3c(O)ccc(OC)c3oc2c1OC | 442
55 | O=c1c2c(O)cc(O)cc2oc2c(O)ccc(O[C@@H]3O[C@H](CO)[C@@H](O)[C@H](O)[C@H]3O)c12 [NORSWERTIANOLIN] | 679
56 | COc1ccc(O)c2c(=O)c3c(O[C@H]4O[C@@H](CO)[C@H](O)[C@H](O)[C@@H]4O)cc(O)c(OC)c3oc12 | 578
57 | COc1ccc(O)c2c(=O)c3c(O[C@H]4O[C@@H](CO[C@H]5OC[C@@H](O)[C@H](O)[C@H]5O)[C@H](O)[C@H](O)[C@@H]4O)cc(O)c(OC)c3oc12 | 417
58 | COc1ccc(O)c2c(=O)c3c(O)cc(O[C@H]4O[C@@H](CO)[C@H](O)[C@H](O)[C@@H]4O)cc3oc12 | > 1000
59 | COc1cc(O)c2c(=O)c3c(O[C@H]4O[C@@H](CO[C@H]5OC[C@@H](O)[C@H](O)[C@H]5O)[C@H](O)[C@H](O)[C@@H]4O)ccc(OC)c3oc2c1OC | 136
60 | COc1c(OC)c(O)c2c(=O)c3c(O[C@H]4O[C@@H](CO[C@H]5OC[C@@H](O)[C@H](O)[C@H]5O)[C@H](O)[C@H](O)[C@@H]4O)ccc(OC)c3oc2c1OC | > 1000
61 | COc1cc(O)c2c(=O)c3c(O[C@@H]4O[C@H](CO)[C@@H](O)[C@H](O)[C@H]4O)ccc(O)c3oc2c1 [SWERTIANOLIN] | 389
62 | COc1cc(O[C@H]2O[C@@H](CO[C@H]3OC[C@@H](O)[C@H](O)[C@H]3O)[C@H](O)[C@H](O)[C@@H]2O)c2c(=O)c3c(O)ccc(OC)c3oc2c1OC | 142
63 | COc1ccc(O)c2c(=O)c3c(O[C@H]4O[C@@H](CO[C@@H]5O[C@@H](CO)[C@H](O)[C@H](O)[C@@H]5O)[C@H](O)[C@H](O)[C@@H]4O)cc(O)c(OC)c3oc12 | 478
